Measurements as given in publication PMC3692398 (Biochemical pharmacology, 2013).
Read-outs that look alike come from different tables or passages of the source.

Legend:
[1] = molecular target: T1, hDAT (Homo sapiens, UniProt Q01959); test: Inhibition of [125I]RTI-55 binding, HEK-hDAT membranes
[2] = molecular target: T2, hSERT (Homo sapiens, UniProt P31645); test: Inhibition of [125I]RTI-55 binding, HEK-hSERT membranes
[3] = molecular target: T3, hNET (Homo sapiens, UniProt P23975); test: biochemical; assay type: binding
T3 sequence (P23975 whole entry): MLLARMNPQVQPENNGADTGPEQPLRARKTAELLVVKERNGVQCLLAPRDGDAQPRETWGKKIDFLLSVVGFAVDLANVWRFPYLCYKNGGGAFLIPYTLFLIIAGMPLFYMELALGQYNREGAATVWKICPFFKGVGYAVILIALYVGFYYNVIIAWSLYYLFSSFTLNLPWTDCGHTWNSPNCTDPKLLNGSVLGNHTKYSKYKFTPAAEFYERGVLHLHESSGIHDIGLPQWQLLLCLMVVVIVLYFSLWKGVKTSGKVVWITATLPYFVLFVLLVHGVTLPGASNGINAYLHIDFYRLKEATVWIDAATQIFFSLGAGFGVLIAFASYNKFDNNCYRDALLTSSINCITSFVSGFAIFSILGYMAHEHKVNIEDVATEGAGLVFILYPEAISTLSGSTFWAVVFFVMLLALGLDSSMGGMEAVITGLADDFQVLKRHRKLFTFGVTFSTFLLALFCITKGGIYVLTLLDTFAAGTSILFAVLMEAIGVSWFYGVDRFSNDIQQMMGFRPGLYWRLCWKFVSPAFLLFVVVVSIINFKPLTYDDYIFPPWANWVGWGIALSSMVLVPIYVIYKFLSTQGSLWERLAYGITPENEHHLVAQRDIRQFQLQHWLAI

[4] = molecular target: T1, hDAT; test: Inhibition of [3H]DA uptake, intact HEK-hDAT cells; assay type: cell-based
[5] = molecular target: T2, hSERT; test: Inhibition of [3H]5-HT uptake, intact HEK-hSERT cells; assay type: cell-based
[6] = molecular target: T3, hNET; test: cell-based; assay type: cell-based
[7] = molecular target: T1, hDAT; test: Superfusion release of preloaded [3H]DA from HEK-hDAT cells; assay type: cell-based
[8] = molecular target: T2, hSERT; test: Superfusion release of preloaded [3H]5-HT from HEK-hSERT cells; assay type: cell-based
[9] = molecular target: T3, hNET; test: Superfusion release of preloaded [3H]NE from HEK-hNET cells; assay type: cell-based
[10] = molecular target: T4, hVMAT2 (Homo sapiens, UniProt Q05940); test: Inhibition of [3H]DHTB binding, HEK-hVMAT2 membranes
T4 sequence (Q05940 whole entry): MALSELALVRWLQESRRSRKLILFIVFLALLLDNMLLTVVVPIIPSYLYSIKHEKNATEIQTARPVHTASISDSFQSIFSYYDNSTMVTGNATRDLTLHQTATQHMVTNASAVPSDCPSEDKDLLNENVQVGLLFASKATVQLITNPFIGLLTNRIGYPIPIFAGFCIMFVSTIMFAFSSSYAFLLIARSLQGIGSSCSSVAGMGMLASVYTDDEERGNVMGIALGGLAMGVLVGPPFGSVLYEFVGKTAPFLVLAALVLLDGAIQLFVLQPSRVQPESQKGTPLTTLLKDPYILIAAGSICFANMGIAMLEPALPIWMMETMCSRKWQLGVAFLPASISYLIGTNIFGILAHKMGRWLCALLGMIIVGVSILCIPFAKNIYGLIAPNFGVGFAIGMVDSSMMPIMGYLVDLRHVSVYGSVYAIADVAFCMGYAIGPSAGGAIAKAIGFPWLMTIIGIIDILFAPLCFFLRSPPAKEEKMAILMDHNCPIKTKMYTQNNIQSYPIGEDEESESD

[11] = molecular target: T4, hVMAT2; test: Inhibition of [3H]5-HT uptake, HEK-hVMAT2 membrane preparation; assay type: biochemical
[12] = molecular target: T4, hVMAT2; test: Superfusion release of preloaded [3H]NE from HEK-hVMAT2 cells; assay type: cell-based
[13] = molecular target: T5, h5-HT1A receptor (Homo sapiens, UniProt P08908); test: [3H]8-OH-DPAT binding, HEK-h5-HT1A
T5 sequence (P08908 1-422): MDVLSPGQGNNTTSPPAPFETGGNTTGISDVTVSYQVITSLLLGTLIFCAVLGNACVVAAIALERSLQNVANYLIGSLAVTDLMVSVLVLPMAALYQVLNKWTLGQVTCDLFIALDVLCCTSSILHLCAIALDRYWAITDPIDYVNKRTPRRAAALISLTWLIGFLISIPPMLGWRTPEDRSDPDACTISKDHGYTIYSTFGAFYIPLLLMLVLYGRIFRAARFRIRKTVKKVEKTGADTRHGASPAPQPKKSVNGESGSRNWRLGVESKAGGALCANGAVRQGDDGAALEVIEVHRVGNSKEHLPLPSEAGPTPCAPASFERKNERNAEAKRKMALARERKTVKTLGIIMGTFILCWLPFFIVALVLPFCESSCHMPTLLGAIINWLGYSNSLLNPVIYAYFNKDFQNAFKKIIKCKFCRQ

[14] = molecular target: T6, h5-HT2A receptor (Homo sapiens, UniProt P28223); test: [125I]DOI binding, HEK-h5-HT2A
T6 sequence (P28223 whole entry): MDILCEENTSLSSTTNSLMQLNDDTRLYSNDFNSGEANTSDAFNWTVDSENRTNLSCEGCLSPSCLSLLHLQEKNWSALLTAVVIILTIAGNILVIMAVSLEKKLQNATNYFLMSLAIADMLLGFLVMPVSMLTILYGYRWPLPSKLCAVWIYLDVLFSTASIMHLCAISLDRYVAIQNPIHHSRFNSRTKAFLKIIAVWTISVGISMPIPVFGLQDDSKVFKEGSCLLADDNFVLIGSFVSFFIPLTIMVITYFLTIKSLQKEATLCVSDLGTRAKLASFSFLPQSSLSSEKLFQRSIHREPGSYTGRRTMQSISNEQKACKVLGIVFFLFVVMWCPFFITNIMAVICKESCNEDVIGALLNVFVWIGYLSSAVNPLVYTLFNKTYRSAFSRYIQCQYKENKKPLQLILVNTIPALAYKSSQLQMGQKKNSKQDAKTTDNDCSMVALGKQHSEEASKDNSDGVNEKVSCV

[15] = molecular target: T7, h5-HT2C receptor (Homo sapiens, UniProt P28335); test: biochemical; assay type: binding
T7 sequence (P28335 33-458): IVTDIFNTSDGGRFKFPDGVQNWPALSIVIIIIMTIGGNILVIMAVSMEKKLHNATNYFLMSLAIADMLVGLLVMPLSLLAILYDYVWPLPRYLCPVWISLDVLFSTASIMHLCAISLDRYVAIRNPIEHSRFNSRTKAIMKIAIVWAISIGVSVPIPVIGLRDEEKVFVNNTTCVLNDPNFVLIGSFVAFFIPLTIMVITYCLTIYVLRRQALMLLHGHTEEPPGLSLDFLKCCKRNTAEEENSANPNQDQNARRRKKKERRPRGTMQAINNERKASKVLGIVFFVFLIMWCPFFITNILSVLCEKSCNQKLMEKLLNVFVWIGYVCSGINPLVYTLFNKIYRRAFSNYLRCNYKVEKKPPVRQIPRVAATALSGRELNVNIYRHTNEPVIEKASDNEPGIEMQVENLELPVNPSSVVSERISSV

[16] = molecular target: T5, h5-HT1A receptor; test: Stimulation of [35S]GTPγS binding, HEK-h5-HT1A membranes; assay type: biochemical
[17] = molecular target: T6, h5-HT2A receptor; test: Inhibition of 5-HT-stimulated IP-1 formation; assay type: cell-based
[18] = molecular target: T7, h5-HT2C receptor; test: Inhibition of 5-HT-stimulated IP-1 formation; assay type: cell-based
[19] = molecular target: hSigma1 receptor (Homo sapiens, UniProt Q99720); test: [3H]; assay type: binding; details: Inhibition of [3H]pentazocine binding Ki ± sem, hSigma1
Chain of hSigma1 receptor (Q99720 whole entry): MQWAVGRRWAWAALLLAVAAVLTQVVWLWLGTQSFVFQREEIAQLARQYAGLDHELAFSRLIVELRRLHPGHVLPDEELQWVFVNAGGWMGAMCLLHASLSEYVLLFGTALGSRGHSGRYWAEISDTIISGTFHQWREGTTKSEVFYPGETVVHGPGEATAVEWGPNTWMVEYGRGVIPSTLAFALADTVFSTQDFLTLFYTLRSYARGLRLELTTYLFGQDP

[20] = blood from heart, periphery, and femoral veins; postmortem cases; ref [32];[33];[34]; cited from earlier work

T1 sequence (Q01959 whole entry): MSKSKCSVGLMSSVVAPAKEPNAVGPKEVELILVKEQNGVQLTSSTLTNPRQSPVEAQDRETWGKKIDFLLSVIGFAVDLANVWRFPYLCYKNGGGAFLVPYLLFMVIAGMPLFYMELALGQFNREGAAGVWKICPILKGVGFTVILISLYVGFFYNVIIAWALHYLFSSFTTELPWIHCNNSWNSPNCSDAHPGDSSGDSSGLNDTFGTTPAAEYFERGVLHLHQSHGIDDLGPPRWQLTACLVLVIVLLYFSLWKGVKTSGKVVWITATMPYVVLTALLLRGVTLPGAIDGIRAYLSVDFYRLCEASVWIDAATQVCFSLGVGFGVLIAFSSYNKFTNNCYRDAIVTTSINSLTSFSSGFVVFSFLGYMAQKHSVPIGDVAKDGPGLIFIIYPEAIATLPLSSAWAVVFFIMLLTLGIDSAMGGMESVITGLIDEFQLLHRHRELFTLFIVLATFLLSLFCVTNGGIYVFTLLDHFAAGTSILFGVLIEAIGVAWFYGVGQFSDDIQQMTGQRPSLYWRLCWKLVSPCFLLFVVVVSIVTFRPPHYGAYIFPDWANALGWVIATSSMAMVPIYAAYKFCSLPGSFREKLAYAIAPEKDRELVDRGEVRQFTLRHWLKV
T2 sequence (P31645 whole entry): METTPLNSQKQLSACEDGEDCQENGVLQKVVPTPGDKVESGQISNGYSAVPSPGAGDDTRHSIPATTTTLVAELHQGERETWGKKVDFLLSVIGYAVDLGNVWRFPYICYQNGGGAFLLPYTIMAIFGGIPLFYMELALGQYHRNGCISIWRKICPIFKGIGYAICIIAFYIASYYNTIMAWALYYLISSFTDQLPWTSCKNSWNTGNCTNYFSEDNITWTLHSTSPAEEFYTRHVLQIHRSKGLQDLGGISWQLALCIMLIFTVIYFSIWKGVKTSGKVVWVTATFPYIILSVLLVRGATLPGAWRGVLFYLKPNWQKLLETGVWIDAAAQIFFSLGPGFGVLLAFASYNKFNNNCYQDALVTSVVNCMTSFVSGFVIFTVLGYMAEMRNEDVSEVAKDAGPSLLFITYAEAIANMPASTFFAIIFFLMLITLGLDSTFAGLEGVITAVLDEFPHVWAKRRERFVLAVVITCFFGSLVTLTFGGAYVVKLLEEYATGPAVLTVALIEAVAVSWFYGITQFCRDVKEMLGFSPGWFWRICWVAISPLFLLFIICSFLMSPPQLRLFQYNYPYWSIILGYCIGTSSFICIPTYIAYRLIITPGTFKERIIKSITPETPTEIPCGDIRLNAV

CNC(C)C(=O)c1ccc2c(c1)OCO2 (stereo not shown) [Methylone, 3,4-methylenedioxy-N-methylcathinone]
Ki [1]: 5.02 ± 0.29 µM | Ki [2]: 95.5 ± 4.3 µM | Ki [3]: 16.5 ± 4.9 µM | IC50 [4]: 0.343 ± 0.024 µM | ratio of binding Ki to uptake IC50, hDAT ([4]; [125I]RTI-55 Ki / [3H]DA uptake IC50): 15 | IC50 [5]: 1.92 ± 0.35 µM | ratio of binding Ki to uptake IC50, hSERT ([5]; [125I]RTI-55 Ki / [3H]5-HT uptake IC50): 50 | IC50 [6]: 0.234 ± 0.055 µM | ratio of binding Ki to uptake IC50, hNET ([6]; [125I]RTI-55 Ki / [3H]NE uptake IC50): 71 | % maximum release ± sem, hDAT [3H]DA [7]: 41 ± 12% | EC50 [7]: 11.8 ± 5.6 µM | time of peak/maximal [3H]DA release after addition of drug ([7]; 4-FMC 10 µM to 300 µM, mephedrone 30 µM, methylone 100 µM): ≤ 6 min | fold less potent than METH to induce [3H]DA release ([7]; EC50 compared to METH): 30 fold | % maximum release ± sem, hDAT [3H]DA ([7]; listed as methylone): 41% | % maximum release ± sem, hSERT [3H]5-HT [8]: 78 ± 18% | EC50 [8]: 6.7 ± 2.78 µM | time of peak [3H]5-HT release after addition of drug [8]: about 6 min | EC50 [9]: 0.426 ± 0.067 µM | time of peak [3H]NE release after addition of drug [9]: 8 to 16 min | % maximum release ± sem, hNET [3H]NE ([9]; relative to maximal AUC induced by METH (0.3 or 1 µM)): 122 ± 32% | Ki [10]: > 1000 µM | IC50 [11]: > 100 µM | EC50 [12]: > 100 µM | Release of [3H]NE % maximum release ± sem or range, hVMAT2 [12]: 21.8 ± 8.5% | Release of [3H]NE % maximum release ± sem or range, hVMAT2 ([12]; listed as methylone): less than 35% | Ki [13]: 63.3 ± 0.98 µM | Ki [14]: 48.5 ± 8 µM | Ki [15]: 10.6 ± 1.8 µM | EC50 [16]: 143 ± 32 µM | Emax ([16]; read-out: h5-HT1A Stimulation of [35S]GTPγS binding % maximum stimulation ± sem): 47% | IC50 [17]: 159 ± 11 µM | h5-HT2A Inhibition of 5-HT-stimulated IP-1 formation % maximum inhibition ± sem ([17]; 100 nM 5-HT, normalized to maximal inhibition by ketanserin (10 µM)): 84.7 ± 5.2% | IC50 [18]: > 1000 µM | h5-HT2C Inhibition of 5-HT-stimulated IP-1 formation % maximum inhibition ± sem ([18]; 100 nM 5-HT, normalized to maximal inhibition by SB242084 (1 µM)): 28.0 ± 7.5% | Ki [19]: 25.5 ± 7.7 µM | postmortem blood concentration [20]: 0.06 to 3.3 mg/L | postmortem blood concentration (molar) [20]: 0.25 to 14 µM
